{"source": "patent US20230017786A1", "about": "“DEXTR[…] A DISEASE-MODIFYING TREATMENT FOR NEUROPSYCHIATRIC DISORDERS AND DISEASES” (priority 2020, published 2023)", "key": {"[1]": {"molecular_target": "T1, human NMDA receptor GluN1-GluN2A (Homo sapiens, UniProt Q05586+Q12879)", "T1 construct": "expressed in transfected cells; host or cells: CHO", "assay": "FLIPR calcium assay, test item effect on L-glutamate CRC, GluN1-GluN2A-CHO", "type": "cell-based", "description": "(§1) FLIPR determination of intracellular calcium level was used as a read-out for NMDAR activation.\n(§2) 400× compound plate was stored at −20° C. until FLIPR experimental day.\n(§3) 4× compound plate was generated from 400× compound plate by addition of up to 30 μl/well of compound buffer on FLIPR experimental day.\n(§4) A FLIPR system was used to monitor intracellular calcium level in NMDAR cell lines, pre-loaded for 1 hour with Fluo-4, and then washed with assay buffer.\n(§5) Y=Bottom+(Top−Bottom)/(1+10^((LogEC50−Log[A])*HillSlope))"}, "[2]": {"tested_on": "diheteromeric human recombinant NMDAR containing GluN1 plus GluN2A, GluN2B, GluN2C or GluN2D", "assay": "FLIPR calcium assay, statements for all four NMDAR subtypes together", "type": "cell-based", "conditions": "6 test item concentrations", "source_text": "An operational equation for allosteric modulators (Leach K, Sexton P M and Christopoulos A, Allosteric GPCR modulators: taking advantage of permissive receptor pharmacology, Trends Pharmacol. Sci. 28: 382-389, 2007; Kenakin T P, Overview of receptor interaction of agonists and antagonists, Curr. Protoc. Pharmacol. Chapter 4: Unit 4.1, 2008, Kenakin T P, Biased signalling and allosteric machines: new vistas and challenges for drug discovery, Br. J. Pharmacol. 165: 1659-1669, 2012) was created in Prism 8 (GraphPad) software to estimate KB and a parameters for every test item, with the assumption that, as a pore blocker, every test item would be able to produce a compete blockade of agonist response, at sufficiently high concentration: […]"}, "[3]": {"molecular_target": "T2, human NMDA receptor GluN1-GluN2C (Homo sapiens, UniProt Q05586+Q14957)", "T2 construct": "expressed in transfected cells; host or cells: CHO", "T2 sequence (Q14957 20-1233, other chains not shown)": "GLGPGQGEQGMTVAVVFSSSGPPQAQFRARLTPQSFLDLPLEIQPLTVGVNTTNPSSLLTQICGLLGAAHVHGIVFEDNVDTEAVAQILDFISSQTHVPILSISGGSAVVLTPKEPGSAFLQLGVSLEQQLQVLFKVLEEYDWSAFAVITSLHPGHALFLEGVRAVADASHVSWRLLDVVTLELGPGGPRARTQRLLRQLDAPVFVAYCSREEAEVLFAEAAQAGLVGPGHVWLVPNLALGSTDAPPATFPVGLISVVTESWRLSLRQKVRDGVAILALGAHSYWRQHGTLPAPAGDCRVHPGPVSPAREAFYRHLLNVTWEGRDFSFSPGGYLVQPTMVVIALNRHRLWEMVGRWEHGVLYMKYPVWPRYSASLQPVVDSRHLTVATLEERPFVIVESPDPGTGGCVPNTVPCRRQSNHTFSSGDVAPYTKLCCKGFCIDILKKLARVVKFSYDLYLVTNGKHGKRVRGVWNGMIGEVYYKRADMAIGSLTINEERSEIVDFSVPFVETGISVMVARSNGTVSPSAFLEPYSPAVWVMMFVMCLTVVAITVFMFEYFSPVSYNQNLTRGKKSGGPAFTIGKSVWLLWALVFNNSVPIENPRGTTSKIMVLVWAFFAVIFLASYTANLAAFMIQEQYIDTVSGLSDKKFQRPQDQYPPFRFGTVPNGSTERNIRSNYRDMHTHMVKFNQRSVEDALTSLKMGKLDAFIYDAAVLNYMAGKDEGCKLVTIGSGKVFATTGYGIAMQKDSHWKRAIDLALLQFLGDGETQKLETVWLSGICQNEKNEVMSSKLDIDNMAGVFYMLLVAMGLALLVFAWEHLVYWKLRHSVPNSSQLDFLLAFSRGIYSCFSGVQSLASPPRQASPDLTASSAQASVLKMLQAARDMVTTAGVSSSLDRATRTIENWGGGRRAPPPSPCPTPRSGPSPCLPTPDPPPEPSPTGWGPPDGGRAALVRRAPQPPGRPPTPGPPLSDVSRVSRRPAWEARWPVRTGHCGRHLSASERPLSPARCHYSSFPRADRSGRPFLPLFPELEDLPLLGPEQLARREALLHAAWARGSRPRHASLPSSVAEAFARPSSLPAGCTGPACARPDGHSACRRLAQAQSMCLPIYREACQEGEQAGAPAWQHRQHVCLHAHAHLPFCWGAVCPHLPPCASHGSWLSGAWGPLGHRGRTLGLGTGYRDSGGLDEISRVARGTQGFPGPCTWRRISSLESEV", "assay": "FLIPR calcium assay, test item effect on L-glutamate CRC, GluN1-GluN2C-CHO", "type": "cell-based", "description": "as §1, §2, §3, §4, §5"}, "[4]": {"molecular_target": "T3, human NMDA receptor GluN1-GluN2D (Homo sapiens, UniProt O15399+Q05586)", "T3 construct": "expressed in transfected cells; host or cells: CHO", "T3 sequence (O15399 28-1336, other chains not shown)": "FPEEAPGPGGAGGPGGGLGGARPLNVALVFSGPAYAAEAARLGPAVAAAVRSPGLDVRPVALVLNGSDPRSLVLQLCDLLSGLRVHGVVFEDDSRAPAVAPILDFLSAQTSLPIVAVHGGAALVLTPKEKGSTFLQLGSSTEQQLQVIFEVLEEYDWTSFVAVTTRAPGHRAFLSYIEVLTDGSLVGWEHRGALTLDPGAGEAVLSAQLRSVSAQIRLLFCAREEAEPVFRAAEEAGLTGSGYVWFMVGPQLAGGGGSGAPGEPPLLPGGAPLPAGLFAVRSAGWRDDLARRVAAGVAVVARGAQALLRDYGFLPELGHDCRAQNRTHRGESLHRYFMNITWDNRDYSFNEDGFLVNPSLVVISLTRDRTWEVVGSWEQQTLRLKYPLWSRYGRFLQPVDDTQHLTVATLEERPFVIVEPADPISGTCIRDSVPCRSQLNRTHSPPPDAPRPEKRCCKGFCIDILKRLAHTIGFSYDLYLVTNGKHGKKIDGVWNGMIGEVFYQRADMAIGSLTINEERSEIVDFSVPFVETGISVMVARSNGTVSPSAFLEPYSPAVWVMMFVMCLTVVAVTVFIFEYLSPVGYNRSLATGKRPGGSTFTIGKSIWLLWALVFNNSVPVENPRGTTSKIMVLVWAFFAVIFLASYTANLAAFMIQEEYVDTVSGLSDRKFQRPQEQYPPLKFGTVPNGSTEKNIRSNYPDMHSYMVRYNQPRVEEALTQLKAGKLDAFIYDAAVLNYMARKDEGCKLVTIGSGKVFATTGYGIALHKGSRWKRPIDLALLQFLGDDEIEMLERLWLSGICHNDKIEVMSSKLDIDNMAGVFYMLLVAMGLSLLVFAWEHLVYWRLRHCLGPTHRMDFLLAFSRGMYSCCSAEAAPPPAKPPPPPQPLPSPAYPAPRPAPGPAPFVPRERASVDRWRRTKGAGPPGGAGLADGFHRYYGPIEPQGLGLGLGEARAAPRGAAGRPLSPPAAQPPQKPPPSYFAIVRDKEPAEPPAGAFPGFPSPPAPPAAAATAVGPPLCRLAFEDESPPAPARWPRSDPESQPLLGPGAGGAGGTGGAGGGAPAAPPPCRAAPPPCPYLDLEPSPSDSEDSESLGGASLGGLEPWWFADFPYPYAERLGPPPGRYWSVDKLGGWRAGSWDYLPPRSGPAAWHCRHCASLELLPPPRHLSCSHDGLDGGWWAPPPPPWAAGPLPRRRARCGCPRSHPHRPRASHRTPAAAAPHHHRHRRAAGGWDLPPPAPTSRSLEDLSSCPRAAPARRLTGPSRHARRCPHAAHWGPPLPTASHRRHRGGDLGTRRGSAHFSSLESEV", "assay": "FLIPR calcium assay, test item effect on L-glutamate CRC, GluN1-GluN2D-CHO", "type": "cell-based", "description": "as §1, §2, §3, §4, §5"}, "[5]": {"tested_on": "rat brain", "conditions": "75 mg/kg; Hashimoto et al., 1996; cited from earlier work"}, "[6]": {"molecular_target": "T4, human NMDA receptor GluN1-GluN2B (Homo sapiens, UniProt Q05586+Q13224)", "T4 construct": "expressed in transfected cells; host or cells: CHO", "T4 sequence (Q13224 27-1484, other chains not shown)": "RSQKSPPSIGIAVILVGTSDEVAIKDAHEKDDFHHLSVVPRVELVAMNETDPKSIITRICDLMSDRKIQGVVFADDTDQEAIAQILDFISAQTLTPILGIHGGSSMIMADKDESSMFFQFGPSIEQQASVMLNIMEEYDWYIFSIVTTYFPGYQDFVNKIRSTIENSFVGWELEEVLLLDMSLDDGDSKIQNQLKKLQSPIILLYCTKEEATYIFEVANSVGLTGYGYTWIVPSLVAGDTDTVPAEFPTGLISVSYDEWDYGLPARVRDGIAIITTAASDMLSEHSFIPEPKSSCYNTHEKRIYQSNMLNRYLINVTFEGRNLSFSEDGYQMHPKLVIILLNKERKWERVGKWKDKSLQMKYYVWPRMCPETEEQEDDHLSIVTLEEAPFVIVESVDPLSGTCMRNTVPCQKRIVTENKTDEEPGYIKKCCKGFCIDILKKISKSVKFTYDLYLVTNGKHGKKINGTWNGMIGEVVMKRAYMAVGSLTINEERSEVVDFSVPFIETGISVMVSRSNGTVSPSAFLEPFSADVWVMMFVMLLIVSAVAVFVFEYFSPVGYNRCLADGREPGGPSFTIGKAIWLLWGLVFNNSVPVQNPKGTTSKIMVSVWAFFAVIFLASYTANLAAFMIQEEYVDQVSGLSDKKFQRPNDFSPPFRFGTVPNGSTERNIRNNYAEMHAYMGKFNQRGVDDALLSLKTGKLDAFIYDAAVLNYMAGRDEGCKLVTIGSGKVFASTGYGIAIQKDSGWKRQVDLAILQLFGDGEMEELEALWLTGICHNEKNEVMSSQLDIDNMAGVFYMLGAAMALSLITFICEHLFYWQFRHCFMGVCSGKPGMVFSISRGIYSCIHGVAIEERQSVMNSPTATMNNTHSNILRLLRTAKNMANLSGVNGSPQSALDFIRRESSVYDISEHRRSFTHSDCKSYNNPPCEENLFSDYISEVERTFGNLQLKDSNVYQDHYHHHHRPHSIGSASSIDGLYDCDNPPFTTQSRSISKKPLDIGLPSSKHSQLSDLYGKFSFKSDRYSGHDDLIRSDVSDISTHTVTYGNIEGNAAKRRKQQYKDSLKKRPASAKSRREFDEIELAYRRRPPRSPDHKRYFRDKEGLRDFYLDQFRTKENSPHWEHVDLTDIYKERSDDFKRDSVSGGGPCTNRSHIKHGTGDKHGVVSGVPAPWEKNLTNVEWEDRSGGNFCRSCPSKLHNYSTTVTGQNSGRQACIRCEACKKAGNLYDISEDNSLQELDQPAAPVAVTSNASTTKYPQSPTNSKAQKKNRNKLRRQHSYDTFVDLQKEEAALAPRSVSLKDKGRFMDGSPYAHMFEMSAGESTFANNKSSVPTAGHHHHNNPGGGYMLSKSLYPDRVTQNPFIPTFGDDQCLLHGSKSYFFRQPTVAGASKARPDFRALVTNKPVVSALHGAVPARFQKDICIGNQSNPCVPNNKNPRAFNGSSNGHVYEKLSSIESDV", "assay": "cell-based", "type": "cell-based", "description": "as §1, §2, §3, §4, §5"}, "[7]": {"conditions": "highest affinity for a NMDAR subtype = 100%"}, "[8]": {"conditions": "operational analysis for allosteric modulators"}, "[9]": {"conditions": "operational analysis for allosteric modulators, read-out: KB (M), estimated test item equilibrium dissociation constant"}}, "note": "Where a name gives a salt, the structure may show the parent alone.", "data": [{"smiles": "COc1ccc2c(c1)[C@]13CCCC[C@@H]1[C@H](C2)N(C)CC3", "note": "[Dextromethorphan, dextromethorphan hydrobromide monohydrate]", "values": [{"measurement": "% affinity ratio", "setting": "[1]; [7]", "value": 13, "unit": "%"}, {"measurement": "α, estimated cooperativity term", "setting": "[1]; [8]", "value": 0.25}, {"measurement": "Kb", "setting": "[1]; [9]", "value": "9.6e-06", "unit": "M"}, {"measurement": "L-glutamate CRC HillSlope", "setting": "[1]; with test item 49 nM", "value": 1.0}, {"measurement": "L-glutamate CRC LogEC50", "setting": "[1]; with test item 49 nM", "value": "−6.6"}, {"measurement": "L-glutamate CRC HillSlope", "setting": "[1]; with test item 195 nM", "value": 1.2}, {"measurement": "L-glutamate CRC LogEC50", "setting": "[1]; with test item 195 nM", "value": "−6.6"}, {"measurement": "L-glutamate CRC HillSlope", "setting": "[1]; with test item 781 nM", "value": 1.3}, {"measurement": "L-glutamate CRC LogEC50", "setting": "[1]; with test item 781 nM", "value": "−6.4"}, {"measurement": "L-glutamate CRC HillSlope", "setting": "[1]; with test item 3.1 μM", "value": 1.3}, {"measurement": "L-glutamate CRC LogEC50", "setting": "[1]; with test item 3.1 μM", "value": "−6.5"}, {"measurement": "L-glutamate CRC HillSlope", "setting": "[1]; with test item 12.5 μM", "value": 1.1}, {"measurement": "L-glutamate CRC LogEC50", "setting": "[1]; with test item 12.5 μM", "value": "−6.4"}, {"measurement": "L-glutamate CRC HillSlope", "setting": "[1]; with test item 50 μM", "value": 1.3}, {"measurement": "L-glutamate CRC LogEC50", "setting": "[1]; with test item 50 μM", "value": "−6.2"}, {"measurement": "profile on L-glutamate CRC", "setting": "[2]", "value": "insurmountable profile"}, {"measurement": "% affinity ratio", "setting": "[3]; [7]", "value": 100, "unit": "%"}, {"measurement": "α, estimated cooperativity term", "setting": "[3]; [8]", "value": 0.24}, {"measurement": "Kb", "setting": "[3]; [9]", "value": "1.2e-06", "unit": "M"}, {"measurement": "L-glutamate CRC HillSlope", "setting": "[3]; with test item 49 nM", "value": 1.3}, {"measurement": "L-glutamate CRC LogEC50", "setting": "[3]; with test item 49 nM", "value": "−7.0"}, {"measurement": "L-glutamate CRC HillSlope", "setting": "[3]; with test item 195 nM", "value": 1.4}, {"measurement": "L-glutamate CRC LogEC50", "setting": "[3]; with test item 195 nM", "value": "−6.8"}, {"measurement": "L-glutamate CRC HillSlope", "setting": "[3]; with test item 781 nM", "value": 1.6}, {"measurement": "L-glutamate CRC LogEC50", "setting": "[3]; with test item 781 nM", "value": "−6.8"}, {"measurement": "L-glutamate CRC HillSlope", "setting": "[3]; with test item 3.1 μM", "value": 1.6}, {"measurement": "L-glutamate CRC LogEC50", "setting": "[3]; with test item 3.1 μM", "value": "−6.7"}, {"measurement": "L-glutamate CRC HillSlope", "setting": "[3]; with test item 12.5 μM", "value": 1.5}, {"measurement": "L-glutamate CRC LogEC50", "setting": "[3]; with test item 12.5 μM", "value": "−6.7"}, {"measurement": "L-glutamate CRC HillSlope", "setting": "[3]; with test item 50 μM", "value": 3.0}, {"measurement": "L-glutamate CRC LogEC50", "setting": "[3]; with test item 50 μM", "value": "−6.8"}, {"measurement": "Kb", "setting": "[4]; KB Table, absence of extracellular Mg2+, read-out: KB", "value": 6.7, "unit": "µM"}, {"measurement": "% affinity ratio", "setting": "[4]; [7]", "value": 18, "unit": "%"}, {"measurement": "α, estimated cooperativity term", "setting": "[4]; [8]", "value": 0.34}, {"measurement": "L-glutamate CRC HillSlope", "setting": "[4]; with test item 49 nM", "value": 1.7}, {"measurement": "L-glutamate CRC LogEC50", "setting": "[4]; with test item 49 nM", "value": "−7.5"}, {"measurement": "L-glutamate CRC HillSlope", "setting": "[4]; with test item 195 nM", "value": 1.4}, {"measurement": "L-glutamate CRC LogEC50", "setting": "[4]; with test item 195 nM", "value": "−7.5"}, {"measurement": "L-glutamate CRC HillSlope", "setting": "[4]; with test item 781 nM", "value": 1.7}, {"measurement": "L-glutamate CRC LogEC50", "setting": "[4]; with test item 781 nM", "value": "−7.4"}, {"measurement": "L-glutamate CRC HillSlope", "setting": "[4]; with test item 3.1 μM", "value": 1.9}, {"measurement": "L-glutamate CRC LogEC50", "setting": "[4]; with test item 3.1 μM", "value": "−7.3"}, {"measurement": "L-glutamate CRC HillSlope", "setting": "[4]; with test item 12.5 μM", "value": 1.7}, {"measurement": "L-glutamate CRC LogEC50", "setting": "[4]; with test item 12.5 μM", "value": "−7.1"}, {"measurement": "L-glutamate CRC HillSlope", "setting": "[4]; with test item 50 μM", "value": 1.9}, {"measurement": "L-glutamate CRC LogEC50", "setting": "[4]; with test item 50 μM", "value": "−6.8"}, {"measurement": "vacuolization in rats' brains", "setting": "[5]", "value": "cause vacuolization"}, {"measurement": "% affinity ratio", "setting": "[6]; [7]", "value": 63, "unit": "%"}, {"measurement": "α, estimated cooperativity term", "setting": "[6]; [8]", "value": 0.13}, {"measurement": "Kb", "setting": "[6]; [9]", "value": "1.9e-06", "unit": "M"}, {"measurement": "L-glutamate CRC HillSlope", "setting": "[6]; with test item 49 nM", "value": 1.2}, {"measurement": "L-glutamate CRC LogEC50", "setting": "[6]; with test item 49 nM", "value": "−6.7"}, {"measurement": "L-glutamate CRC HillSlope", "setting": "[6]; with test item 195 nM", "value": 1.1}, {"measurement": "L-glutamate CRC LogEC50", "setting": "[6]; with test item 195 nM", "value": "−6.7"}, {"measurement": "L-glutamate CRC HillSlope", "setting": "[6]; with test item 781 nM", "value": 1.3}, {"measurement": "L-glutamate CRC LogEC50", "setting": "[6]; with test item 781 nM", "value": "−6.6"}, {"measurement": "L-glutamate CRC HillSlope", "setting": "[6]; with test item 3.1 μM", "value": 1.3}, {"measurement": "L-glutamate CRC LogEC50", "setting": "[6]; with test item 3.1 μM", "value": "−6.7"}, {"measurement": "L-glutamate CRC HillSlope", "setting": "[6]; with test item 12.5 μM", "value": 1.2}, {"measurement": "L-glutamate CRC LogEC50", "setting": "[6]; with test item 12.5 μM", "value": "−6.7"}, {"measurement": "L-glutamate CRC HillSlope", "setting": "[6]; with test item 50 μM", "value": 0.83}, {"measurement": "L-glutamate CRC LogEC50", "setting": "[6]; with test item 50 μM", "value": "−6.2"}]}]}
